Assay results from patent publication US11186587B2, “Compound as ACC inhibitor and use thereof” (NANJING SANHOME PHARMACEUTICAL CO., LTD., priority 2017, dated 2021).
Like-named read-outs stand apart in the source and are kept apart here.

Experiments:
[1] = biological target: ACC1 (Homo sapiens (Human), UniProt Q13085); assay: ACC1 enzyme activity assay (ADP-Glo); assay type: biochemical; conditions: ACC1 enzyme 2 nM working solution, room temperature
Method: (§1) Compound preparation: the compounds of the present disclosure prepared in the above examples and the control compound were respectively formulated into 10 mM with DMSO for use.
(§2) Preparation of 1× reaction buffer (pH=7.4): HEPES stock solutions (1 M), MgCl2 (1 M), BRIJ-35 (10%), potassium citrate buffer (1 M), BSA (10 mg/mL) and DTT (500 mM) were formulated to enzyme reaction buffer containing HEPES (50 mM), MgCl2 (2 mM), BRIJ-35 (0.01%), potassium citrate buffer (2 mM), BSA (50 Gg/mL) and DTT (2 mM).
4.5 μL of 2.2×ACC1 enzyme (2 nM) working solution was added to a 384-well plate; and then 0.5 μL of different concentrations of compound were added. The mixture was incubated at room temperature for 15 min.
(§3) Negative control group: menstruum containing 5% DMSO; positive control group: menstruum containing 100 nM ND-630. The average values of each concentration and the positive and negative controls were calculated, and the standard deviation was calculated. […] The inhibition rate data was fitted by nonlinear regression equation to calculate IC50 of each compound. The nonlinear regression equation was Y=lowest value+(highest value−lowest value)/(1+10^((Log IC50−X)×HillSlope)), among which X is logarithm of the compound concentration and Y is inhibition percent (%).

[2] = Evaluation of compound distribution in rat liver; assay type: in vivo; conditions: male SD rats, single oral 3 mg/kg, 0.25 h after administration; for Kp at 0.25 h: liver/plasma, read-out: Liver/plasma distribution ratio
Method: An acclimation period of 2-3 days was given before the experiments. The rats were fasted for 8-12 h before administration, supplied with water 2 h after administration and foods 4 h after administration.
6 mg of the test compound (based on free base) was weighed and added to 20 mL of ethanol-PEG400-saline (10:30:60). The mixture was vortexed for 2 min, and sonicated for 3 min, and then used to prepare a solution of test sample solution with a concentration of 0.3 mg/mL for oral administration. 100 μL of the test sample solution was volumed to 10 ng/mL with methanol, and a control sample of the same concentration was prepared. The concentrations of the test sample and control sample were detected by HPLC, and the accuracy was calculated.
SD rats were given a single oral administration of 3 mg/kg of test compound at a dose of 10 mL/kg. The rats were bled in femoral artery and ruptured in neck 0.25 h after administration. The liver and blood samples (anticoagulation with heparin sodium) were collected immediately, and placed on ice.
The homogenate was centrifuged (centrifugation conditions: 8000 rpm/min, 5 min, 4° C.). The supernatant was transferred and subjected to cryopreservation. The supernatant was thawed and centrifuged before injection, and the supernatant was collected and subjected to LC-MS/MS for analyzing the content of the compound in the supernatant sample.
The collected whole blood sample was placed on ice and centrifuged within 30 min (centrifugation conditions: 8000 rpm/min, 5 min, 4° C.). 100 μL of the upper layer of plasma was transferred, and precipitated with 300 μL of methanol. The mixture was shaken and centrifuged, and diluted with mobile phase. The supernatant was collected and subjected to LC-MS/MS for analyzing the content of the compound in the supernatant sample.

[3] = tested on: Col1A1 gene expression in TGF-β1-induced LX-2 cells; assay: Inhibition of human hepatic stellate cells LX-2 activation in vitro (Col1A1 gene expression, real-time PCR); assay type: cell-based; conditions: TGFβ1 10 ng/mL, 24 h drug treatment, compound concentration of the tabulated value not stated (30, 10, 3 μM prepared)
Method: The compounds of the present disclosure prepared in the above examples and the control compound were respectively formulated into 60 mM with DMSO for use.
DMSO stock solution of the compounds of the examples of the present disclosure and the control compound were sequentially diluted with culture medium to 30 μM, 10 μM, and 3 μM. TGF-β1 was dissolved to […] with 10 mM citric acid buffer in the kit (PeproTech) according to the instructions, ready for use.
LX-2 cells were inoculated into a 6-well culture plate at a density of 2×10^5 cells/mL after cell passage. Each well contained 2 mL DMEM with 10% FBS. The cells were cultured at 37° C. in a 5% CO2 incubator, which was recorded as Day 1. After 24 h (Day 2), the cell confluence reached 70-80%, the old culture medium was discarded, and the serum-free DMEM was used to treat the cells as low serum starvation. The old culture medium was discarded at Day 3, and the culture medium or the culture medium containing different concentrations of the drug was added for continuing culture. There were control group (serum-free DMEM culture medium), TGFβ1 group, TGFβ1+ compound group. The TGFβ1 working concentration was 10 ng/mL. 24 h after the drug treatment (Day 4), the cell medium was discarded and the cells were washed once with precooled 1×PBS and then subjected to total RNA extraction.
2.3.1 Sample pretreatment: 1 mL of TransZOL Up reagent was added to each well of the 6-well plate, and the well plate was placed horizontally for a while to let the lysis buffer evenly spread on the cell surface and lyse the cells. The cells were blown with a pipette to make the cells completely detached. The lysate was transferred to a 2 mL RNase free centrifuge tube and repeatedly blown and sucked until no significant pieces in the lysate.
The extracted RNA was diluted to a concentration of 0.1 μg-0.5 μg (Total RNA ≤1 μg) based on the same mass. The total RNA in the reverse transcription system of each sample in the experiment was about 500 ng.
Two replicates were set for each sample, and the relative expression of the target gene was calculated by the program in the PCR machine.
The threshold of the Real Time PCR result was automatically set by the Real Time PCR detector system. The relative expression of the Col1A1 gene was calculated as follows. ΔCt (Col1A1 in drug treatment group)=Avg. Ct (Col1A1 in drug treatment group)−Avg. Ct (GAPDH in drug treatment group) ΔCt (Col1A1 in TGF group)=Avg. Ct (Col1A1 in TGF group)−Avg. Ct (GAPDH in TGF group) ΔCt (Col1A1 in Control group)=Avg. Ct (Col1A1 in Control group)−Avg. Ct (GAPDH in Control group) ΔΔCt=Average value of ΔCt (Col1A1 in TGF group/drug treatment group)−ΔCt (Col1A1 in Control group)
Formula for calculating the relative expression of Col1A1 gene: RQ=^2−ΔΔCt
Relative quantification results were obtained by automatically analysis of ABI 7500 real-time quantitative PCR machine.

[4] = biological target: ACC2 (Homo sapiens (Human), UniProt O00763); assay: ACC2 enzyme activity assay (ADP-Glo); assay type: biochemical; conditions: ACC2 enzyme 1.1 nM working solution, room temperature
Method: as §1, §2
The mixture was incubated at room temperature for 15 min.
as §3

[5] = liver, read-out: Concentration in Liver
[6] = plasma, read-out: Concentration in Plasma

Chain of ACC2 (O00763 whole entry): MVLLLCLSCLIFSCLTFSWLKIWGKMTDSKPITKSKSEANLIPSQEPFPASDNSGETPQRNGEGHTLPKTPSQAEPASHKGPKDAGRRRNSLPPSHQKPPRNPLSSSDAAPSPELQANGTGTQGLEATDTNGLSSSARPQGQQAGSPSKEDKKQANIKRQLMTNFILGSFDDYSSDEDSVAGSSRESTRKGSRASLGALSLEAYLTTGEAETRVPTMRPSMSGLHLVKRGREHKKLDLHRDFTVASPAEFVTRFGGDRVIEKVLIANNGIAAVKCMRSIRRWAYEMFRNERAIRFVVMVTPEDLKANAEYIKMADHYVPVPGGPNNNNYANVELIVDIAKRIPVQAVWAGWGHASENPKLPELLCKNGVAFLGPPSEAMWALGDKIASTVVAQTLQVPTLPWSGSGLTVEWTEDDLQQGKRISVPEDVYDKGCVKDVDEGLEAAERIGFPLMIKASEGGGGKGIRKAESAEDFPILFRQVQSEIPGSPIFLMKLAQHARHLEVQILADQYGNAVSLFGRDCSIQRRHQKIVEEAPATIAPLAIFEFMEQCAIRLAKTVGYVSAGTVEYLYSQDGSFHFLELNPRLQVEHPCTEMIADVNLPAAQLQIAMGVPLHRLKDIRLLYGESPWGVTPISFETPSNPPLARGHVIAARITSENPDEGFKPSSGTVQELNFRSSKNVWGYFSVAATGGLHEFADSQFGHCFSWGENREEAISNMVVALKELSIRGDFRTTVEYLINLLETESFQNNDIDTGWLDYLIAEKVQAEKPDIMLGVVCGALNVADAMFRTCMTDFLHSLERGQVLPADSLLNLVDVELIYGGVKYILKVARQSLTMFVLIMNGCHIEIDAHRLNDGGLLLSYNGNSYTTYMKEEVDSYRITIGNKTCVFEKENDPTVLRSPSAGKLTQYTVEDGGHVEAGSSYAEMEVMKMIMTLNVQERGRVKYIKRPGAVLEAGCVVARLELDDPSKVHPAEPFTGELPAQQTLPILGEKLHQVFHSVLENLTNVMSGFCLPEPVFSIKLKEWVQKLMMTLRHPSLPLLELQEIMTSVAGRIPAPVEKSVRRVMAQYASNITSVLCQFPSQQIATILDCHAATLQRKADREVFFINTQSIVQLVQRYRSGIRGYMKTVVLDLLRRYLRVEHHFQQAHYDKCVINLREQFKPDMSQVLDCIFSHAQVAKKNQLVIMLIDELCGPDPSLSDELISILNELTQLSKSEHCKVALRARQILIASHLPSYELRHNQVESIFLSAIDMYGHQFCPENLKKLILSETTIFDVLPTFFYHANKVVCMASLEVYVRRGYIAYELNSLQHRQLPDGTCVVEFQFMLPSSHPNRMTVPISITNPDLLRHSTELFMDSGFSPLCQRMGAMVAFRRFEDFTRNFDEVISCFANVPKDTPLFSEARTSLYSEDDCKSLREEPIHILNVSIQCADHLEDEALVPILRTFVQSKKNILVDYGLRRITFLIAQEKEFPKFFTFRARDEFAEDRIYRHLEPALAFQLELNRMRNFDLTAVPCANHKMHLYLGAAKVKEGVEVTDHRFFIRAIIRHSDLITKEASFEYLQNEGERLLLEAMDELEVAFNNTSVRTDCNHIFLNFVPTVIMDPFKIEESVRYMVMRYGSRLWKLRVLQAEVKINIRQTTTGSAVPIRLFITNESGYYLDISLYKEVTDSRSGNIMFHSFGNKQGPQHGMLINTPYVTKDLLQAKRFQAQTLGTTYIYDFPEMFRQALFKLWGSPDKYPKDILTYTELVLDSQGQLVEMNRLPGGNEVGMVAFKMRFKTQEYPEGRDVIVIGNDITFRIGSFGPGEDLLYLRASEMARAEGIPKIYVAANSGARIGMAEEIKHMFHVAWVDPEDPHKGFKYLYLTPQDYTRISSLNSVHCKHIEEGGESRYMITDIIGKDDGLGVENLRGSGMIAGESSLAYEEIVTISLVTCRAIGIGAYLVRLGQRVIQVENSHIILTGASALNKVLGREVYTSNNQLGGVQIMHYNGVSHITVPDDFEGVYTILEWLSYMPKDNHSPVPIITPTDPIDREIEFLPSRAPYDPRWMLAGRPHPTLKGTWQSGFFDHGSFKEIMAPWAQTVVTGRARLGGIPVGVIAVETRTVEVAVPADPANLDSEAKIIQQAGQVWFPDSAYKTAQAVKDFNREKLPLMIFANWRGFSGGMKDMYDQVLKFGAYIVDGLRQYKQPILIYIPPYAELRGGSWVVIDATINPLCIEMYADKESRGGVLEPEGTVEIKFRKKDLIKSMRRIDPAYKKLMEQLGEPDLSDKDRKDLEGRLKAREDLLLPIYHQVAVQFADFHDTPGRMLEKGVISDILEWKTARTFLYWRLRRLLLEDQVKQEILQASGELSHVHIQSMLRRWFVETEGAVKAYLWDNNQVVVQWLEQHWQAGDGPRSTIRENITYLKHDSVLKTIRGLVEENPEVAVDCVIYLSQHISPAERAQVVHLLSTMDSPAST

Work on `COc1ccccc1[C@H](Cn1c(=O)n([C@H]2C[C@@](C)(C(=O)O)C2)c(=O)c2c(C)c(-c3ncco3)sc21)OC1CCOCC1` [Example 4, (1S,3s)-3-(1-((R)-2-(2-methoxyphenyl)-2-((tetrahydro-2H-pyran-4-yl)oxy)ethyl)-5-methyl-6-(oxazol-2-yl)-2,4-dioxo-1,4-dihydrothieno[2,3-d]pyrimidine-3(2H)-yl)-1-methylcyclobutanecarboxylic Acid] yielded an IC50 [1] of 0.68 nM, a concentration at 0.25 h [2, 5] of 4830 ng/g and a Kp at 0.25 h [2] of 67.1. For the same compound, the concentration at 0.25 h [2, 6] was 72.8 ng/mL, the “Inhibition rate (%) of relative expression of the Col1A1 gene” value [3] was 78.54% and the IC50 [4] was 3.16 nM.
In the case of `COc1ccccc1C(Cn1c(=O)n(-c2ccc(C(=O)O)cc2)c(=O)c2c(C)c(-c3ncco3)sc21)OC1CCOCC1` (stereo not drawn) [Example 24, 4-(1-(2-(2-methoxyphenyl)-2-((tetrahydro-2H-pyran-4-yl)oxy)ethyl)-5-methyl-6-(oxazol-2-yl)-2,4-dioxo-1,4-dihydrothieno[2,3-d]pyrimidin-3(2H)-yl)benzoic Acid], the IC50 [1] is reported as 3.06 nM, the concentration at 0.25 h [2, 5] is reported as 3170 ng/g and the Kp at 0.25 h [2] is reported as 65.3. For the same compound, the concentration at 0.25 h [2, 6] was 48.5 ng/mL and the IC50 [4] was 5.12 nM.
With `COc1ccccc1[C@H](Cn1c(=O)n(-c2cccc(C3(C(=O)O)CC3)c2)c(=O)c2c(C)c(-c3ncco3)sc21)OC1CCOCC1` [Example 56] the “Inhibition rate (%) of relative expression of the Col1A1 gene” value [3] was 105.01%.
In the case of `COc1ccccc1[C@H](Cn1c(=O)n(-c2ccc(C(=O)O)cc2)c(=O)c2c(C)c(-c3ncco3)sc21)OC1CCOCC1` [Example 24a, (R)-4-(1-(2-(2-methoxyphenyl)-2-((tetrahydro-2H-pyran-4-yl)oxy)ethyl)-5-methyl-6-(oxazol-2-yl)-2,4-dioxo-1,4-dihydrothieno[2,3-d]pyrimidin-3(2H)-yl)benzoic Acid], the “Inhibition rate (%) of relative expression of the Col1A1 gene” value [3] is reported as 24.50%.
In the case of `COc1ccccc1C(Cn1c(=O)n(C2CC(C(=O)O)C2)c(=O)c2c(C)c(-c3ncco3)sc21)OC1CCOCC1` (stereo not drawn) [Example 1, 3-(1-(2-(2-methoxyphenyl)-2-((tetrahydro-2H-pyran-4-yl)oxy)ethyl)-5-methyl-6-(oxazol-2-yl)-2,4-dioxo-1,4-dihydrothieno[2,3-d]pyrimidin-3(2H)-yl)cyclobutane-1-carboxylic Acid], the IC50 [1] is reported as 0.69 nM, the concentration at 0.25 h [2, 5] is reported as 4180 ng/g and the Kp at 0.25 h [2] is reported as 144. The concentration at 0.25 h [2, 6] was 29.1 ng/mL and the IC50 [4] was 5.13 nM.
`COc1ccccc1C(Cn1c(=O)n(C2CN(C(C)=O)C2)c(=O)c2c(C)c(-c3ncco3)sc21)OC1CCOCC1` (stereo not drawn) [Example 7] showed an IC50 [1] of 2.23 nM, a concentration at 0.25 h [2, 5] of 1460 ng/g and a Kp at 0.25 h [2] of 75.5. The concentration at 0.25 h [2, 6] was 19.3 ng/mL and the IC50 [4] was 12.4 nM.
`COc1ccccc1C(Cn1c(=O)n(-c2ccc(C(=O)O)cc2OC)c(=O)c2c(C)c(-c3ncco3)sc21)OC1CCOCC1` (stereo not drawn) [Example 26, 3-methoxy-4-(1-(2-(2-methoxyphenyl)-2-((tetrahydro-2H-pyran-4-yl)oxy)ethyl)-5-methyl-6-(oxazol-2-yl)-2,4-dioxo-1,4-dihydrothieno[2,3-d]pyrimidin-3(2H)-yl)benzoic Acid] showed an IC50 [1] of 0.87 nM and an IC50 [4] of 10.3 nM.
`COc1ccccc1C(Cn1c(=O)n(-c2cccc(C(=O)O)c2)c(=O)c2c(C)c(-c3ncco3)sc21)OC1CCOCC1` (stereo not drawn) [Example 25, 3-(1-(2-(2-methoxyphenyl)-2-((tetrahydro-2H-pyran-4-yl)oxy)ethyl)-5-methyl-6-(oxazol-2-yl)-2,4-dioxo-1,4-dihydrothieno[2,3-d]pyrimidin-3(2H)-yl)benzoic Acid] gave an IC50 [1] of 1.57 nM, a concentration at 0.25 h [2, 5] of 3200 ng/g and a Kp at 0.25 h [2] of 151. The concentration at 0.25 h [2, 6] was 21.2 ng/mL, the “Inhibition rate (%) of relative expression of the Col1A1 gene” value [3] was 62.94% and the IC50 [4] was 7.57 nM.
For `COc1ccccc1C(Cn1c(=O)n(C2CN(S(C)(=O)=O)C2)c(=O)c2c(C)c(-c3ncco3)sc21)OC1CCOCC1` (stereo not drawn) [Example 9, 1-(2-(2-methoxyphenyl)-2-((tetrahydro-2H-pyran-4-yl)oxy)ethyl)-5-methyl-3-(1-(methylsulfonyl)azetidin-3-yl)-6-(oxazol-2-yl)thieno[2,3-d]pyrimidine-2,4(1H,3H)-dione], the IC50 [1] was 2.03 nM and the IC50 [4] was 7.92 nM.
Work on `COc1ccccc1C(Cn1c(=O)n(-c2cccc(C(=O)O)c2OC)c(=O)c2c(C)c(-c3ncco3)sc21)OC1CCOCC1` (stereo not drawn) [Example 29, 2-Methoxy-3-(1-(2-(2-methoxyphenyl)-2-((tetrahydro-2H-pyran-4-yl)oxy)ethyl)-5-methyl-6-(oxazol-2-yl)-2,4-dioxo-1,4-dihydrothieno[2,3-d]pyrimidin-3(2H)-yl)benzoic Acid] yielded an IC50 [1] of 2.13 nM and an IC50 [4] of 14.1 nM.
Compound `COc1ccccc1C(Cn1c(=O)n(C2CN(C(=O)N3CCOCC3)C2)c(=O)c2c(C)c(-c3ncco3)sc21)OC1CCOCC1` (stereo not drawn) [Example 12, 1-(2-(2-methoxyphenyl)-2-((tetrahydro-2H-pyran-4-yl)oxy)ethyl)-5-methyl-3-(1-(morpholine-4-formyl)azetidin-3-yl)-6-(oxazol-2-yl)thieno[2,3-d]pyrimidine-2,4(1H,3H)-dione] has an IC50 [1] of 1.22 nM and an IC50 [4] of 8.04 nM.
Work on `COc1ccccc1C(Cn1c(=O)n(C(C)(C)C(=O)O)c(=O)c2c(C)c(-c3ncco3)sc21)OC1CCN(S(C)(=O)=O)CC1` (stereo not drawn) [Example 22] yielded an IC50 [1] of 0.63 nM and an IC50 [4] of 5.13 nM.
